Among the data in patent US11236046B2, “Substituted heterocyclic sulfonamide compounds useful as TRPA1 modulators” (Genentech, Inc., priority 2013, dated 2022) are IC50 and clearance values, retold here.

Structures are written as SMILES. pIC50: −log10 of the molar value.

By pIC50 is commonly meant the negative decadic logarithm of the IC50, by convention in mol/L.

Chain of human TRPA1 (O75762 whole entry): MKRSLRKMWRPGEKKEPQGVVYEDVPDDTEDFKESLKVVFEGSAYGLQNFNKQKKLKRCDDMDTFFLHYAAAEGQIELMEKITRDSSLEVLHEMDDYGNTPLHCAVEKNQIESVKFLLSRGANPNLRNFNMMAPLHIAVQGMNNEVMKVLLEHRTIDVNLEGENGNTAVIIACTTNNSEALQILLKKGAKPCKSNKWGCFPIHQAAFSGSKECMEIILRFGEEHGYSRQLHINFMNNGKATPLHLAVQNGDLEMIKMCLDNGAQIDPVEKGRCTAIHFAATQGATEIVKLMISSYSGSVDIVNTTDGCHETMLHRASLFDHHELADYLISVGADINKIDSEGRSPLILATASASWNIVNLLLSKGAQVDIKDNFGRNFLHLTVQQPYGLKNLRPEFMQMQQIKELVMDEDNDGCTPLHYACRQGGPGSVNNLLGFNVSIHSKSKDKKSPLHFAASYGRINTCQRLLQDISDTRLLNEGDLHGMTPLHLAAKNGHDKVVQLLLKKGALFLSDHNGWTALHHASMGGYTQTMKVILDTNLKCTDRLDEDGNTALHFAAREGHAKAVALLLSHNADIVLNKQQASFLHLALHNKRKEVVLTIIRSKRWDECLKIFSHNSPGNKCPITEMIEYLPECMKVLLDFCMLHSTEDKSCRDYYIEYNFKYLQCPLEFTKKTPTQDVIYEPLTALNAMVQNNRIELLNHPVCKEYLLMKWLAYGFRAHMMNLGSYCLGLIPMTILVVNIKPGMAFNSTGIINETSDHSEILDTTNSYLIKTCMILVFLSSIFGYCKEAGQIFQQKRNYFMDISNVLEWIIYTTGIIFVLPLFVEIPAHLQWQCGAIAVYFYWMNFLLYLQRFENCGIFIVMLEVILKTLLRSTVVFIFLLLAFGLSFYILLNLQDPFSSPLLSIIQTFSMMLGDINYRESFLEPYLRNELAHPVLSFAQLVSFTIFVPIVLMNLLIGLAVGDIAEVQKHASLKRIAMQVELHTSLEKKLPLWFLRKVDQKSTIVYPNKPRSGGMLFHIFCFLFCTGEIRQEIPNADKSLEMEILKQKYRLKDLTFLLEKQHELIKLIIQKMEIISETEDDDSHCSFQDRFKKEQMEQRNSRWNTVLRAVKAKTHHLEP

The target in the first series is human TRPA1 (Homo sapiens (Human), UniProt O75762). As to the kind of experiment: IC50 determination on the human TRPA1 channel, calcium fluorescence (Hamamatsu FDSS plate reader). Type of series: cell-based. The settings on record: CHO cells expressing human TRPA1; block of cinnamaldehyde induced calcium influx; 20 minutes compound incubation; Hill coefficient fixed to 1.5; read-out: hTRPA1 AUC IC50. As to the method:
IC50s (effective concentration) of compounds on the human TRPA1 channel were determined using a Hamamatsu FDSS fluorescence plate reader. CHO cells expressing human TRPA1 were plated into 384-well plates, incubated overnight at 37 C, and loaded with BD calcium indicator dye for 1 hr at 37° C. followed by 15 minutes. at room temperature. The assay buffer was Hank's Balanced Salt Solution (HBSS) containing 20 mM HEPES (pH readjusted to 7.4) along with 0.02% BSA.
Following dye load and plate cool down, compounds were added to the cells using the FDSS while monitoring fluorescence to determine whether any of the test compounds have TRPA1 agonist activity. Plates were then incubated with compound for 20 minutes at room temperature prior to adding agonist. Following this incubation, […] cinnamaldehyde was added to all wells of the plate and block of this cinnamaldehyde induced calcium influx was measured.
Fixing the Hill coefficient will generally reduce variability of the IC50 determination. The IC50s were examined by eye to make sure the MIN and MAX points were set correctly prior to validation of the results.
As to `Cc1nc(CNC(=O)[C@@H]2C[C@@H](F)CN2S(=O)(=O)c2ccc(F)cc2)cc(-c2ccc(C(F)(F)F)nc2)n1` [Example 22, (2S,4R)-4-fluoro-1-(4-fluorophenylsulfonyl)-N-((2-methyl-6-(6-(trifluoromethyl)pyridin-3-yl)pyrimidin-4-yl)methyl)pyrrolidine-2-carboxamide], the pIC50 was 7.06. Same read-out and setting: as for `O=C(NCc1cc(-c2ccc(C3CC3)nc2)ncn1)[C@@H]1C[C@@H](F)CN1S(=O)(=O)c1ccc(F)cc1` [Example 23, (2S,4R)—N-((6-(6-cyclopropylpyridin-3-yl)pyrimidin-4-yl)methyl)-4-fluoro-1-(4-fluorophenylsulfonyl)pyrrolidine-2-carboxamide], the figure is 5.57; as for `O=C(NCc1cc(-c2ccc(C(F)(F)F)nc2)ncn1)[C@@H]1C[C@@H](F)CN1S(=O)(=O)c1ccc(Cl)s1` [Example 24, (2S,4R)-1-(5-chlorothiophen-2-ylsulfonyl)-4-fluoro-N-((6-(6-(trifluoromethyl)pyridin-3-yl)pyrimidin-4-yl)methyl)pyrrolidine-2-carboxamide], 7.57; as for `O=C(NCc1cc(-c2ccc(C(F)(F)F)nc2)ncn1)[C@@H]1C[C@@H](F)CN1S(=O)(=O)c1ccc(F)c(F)c1` [Example 25, (2S,4R)-1-(3,4-difluorophenylsulfonyl)-4-fluoro-N-((6-(6-(trifluoromethyl)pyridin-3-yl)pyrimidin-4-yl)methyl)pyrrolidine-2-carboxamide], 6.90.

As for `O=C(NCc1cc(-c2ccc(C(F)(F)F)cc2)ncn1)[C@@H]1C[C@@H](F)CN1S(=O)(=O)c1ccc(F)c(F)c1` [Example 26, (2S,4R)-1-(3,4-difluorophenylsulfonyl)-4-fluoro-N-((6-(4-(trifluoromethyl)phenyl)pyrimidin-4-yl)methyl)pyrrolidine-2-carboxamide], the negative logarithm of the IC50 (pIC50) was 7.52.

On to `O=C(NCc1cc(-c2ccc(C(F)(F)F)nc2)ncn1)[C@@H]1C[C@@H](F)CN1S(=O)(=O)c1cncc(F)c1` [Example 27, (2S,4R)-4-fluoro-1-(5-fluoropyridin-3-ylsulfonyl)-N-((6-(6-(trifluoromethyl)pyridin-3-yl)pyrimidin-4-yl)methyl)pyrrolidine-2-carboxamide], for which the negative-log IC50 (pIC50) is 5.52. `O=C(NCc1cc(-c2ccc(C(F)(F)F)cc2)ncn1)[C@@H]1C[C@@H](F)CN1S(=O)(=O)c1cncc(F)c1` [Example 28, (2S,4R)-4-fluoro-1-(5-fluoropyridin-3-ylsulfonyl)-N-((6-(4-(trifluoromethyl)phenyl)pyrimidin-4-yl)methyl)pyrrolidine-2-carboxamide]: the pIC50 is 6.64. On the same count and under the same terms, the same measure for `O=C(NCc1cc(-c2ccc(SC(F)(F)F)cc2)ncn1)[C@@H]1C[C@@H](F)CN1S(=O)(=O)c1ccc(F)cc1` [Example 29, (2S,4R)-4-fluoro-1-(4-fluorophenylsulfonyl)-N-((6-(4-(trifluoromethylthio)phenyl)pyrimidin-4-yl)methyl)pyrrolidine-2-carboxamide]: 7.49; for `COC[C@@]1(C(=O)NCc2cc(-c3ccc(C(F)(F)F)nc3)ncn2)CCCN1S(=O)(=O)c1ccc(F)cc1` [Example 30, (R)-1-(4-fluorophenylsulfonyl)-2-(methoxymethyl)-N-((6-(6-(trifluoromethyl)pyridin-3-yl)pyrimidin-4-yl)methyl)pyrrolidine-2-carboxamide]: 6.60; for `O=C(NCc1cc(-c2ccc(C(F)(F)F)nc2)ncn1)[C@]1(C(F)F)CCCN1S(=O)(=O)c1ccc(F)cc1` [Example 31, (S)-2-(difluoromethyl)-1-(4-fluorophenylsulfonyl)-N-((6-(6-(trifluoromethyl)pyridin-3-yl)pyrimidin-4-yl)methyl)pyrrolidine-2-carboxamide]: 7.54.

For `N#C[C@@]1(C(=O)NCc2cc(-c3ccc(C(F)(F)F)nc3)ncn2)CCCN1S(=O)(=O)c1ccc(F)cc1` [Example 32, (R)-2-cyano-1-(4-fluorophenylsulfonyl)-N-((6-(6-(trifluoromethyl)pyridin-3-yl)pyrimidin-4-yl)methyl)pyrrolidine-2-carboxamide], the negative logarithm of the IC50 (pIC50) is 6.06. Still for that read-out and setting: the same measure for `O=C(NCc1cc(-c2ccc(C(F)(F)F)cc2)ncn1)[C@@H]1[C@H]2CC[C@H](C2)N1S(=O)(=O)c1ccc(F)cc1` [Example 33, (1R,3S,4S)-2-(4-fluorophenylsulfonyl)-N-((6-(4-(trifluoromethyl)phenyl)pyrimidin-4-yl)methyl)-2-azabicyclo[2.2.1]heptane-3-carboxamide]: 7.64; for `O=C(NCc1cc(-c2ccc(C(F)(F)F)nc2)ncn1)[C@@H]1[C@H]2CC[C@H](C2)N1S(=O)(=O)c1ccc(F)cc1` [Example 34, (1R,3S,4S)-2-(4-fluorophenylsulfonyl)-N-((6-(6-(trifluoromethyl)pyridin-3-yl)pyrimidin-4-yl)methyl)-2-azabicyclo[2.2.1]heptane-3-carboxamide]: 7.40. The same measure, in the same setting: the same measure for `O=C(NCc1cc(-c2ccc(C(F)(F)F)nc2)ncn1)[C@@H]1[C@@H](F)CCN1S(=O)(=O)c1ccc(F)cc1` [Example 35, (2R,3S)-3-fluoro-1-(4-fluorophenylsulfonyl)-N-((6-(6-(trifluoromethyl)pyridin-3-yl)pyrimidin-4-yl)methyl)pyrrolidine-2-carboxamide]: 7.64; for `O=C(NCc1cc(-c2ccc(C(F)(F)F)nc2)ncn1)[C@@H]1[C@H](F)CCN1S(=O)(=O)c1ccc(F)cc1` [Example 36, (2R,3R)-3-fluoro-1-(4-fluorophenylsulfonyl)-N-((6-(6-(trifluoromethyl)pyridin-3-yl)pyrimidin-4-yl)methyl)pyrrolidine-2-carboxamide]: 6.92.

For `O=C(NCc1cc(N2CCC(C(F)(F)F)CC2)c(F)cn1)[C@@H]1C[C@@H](F)CN1S(=O)(=O)c1ccc(F)cc1` [Example 37, (2S,4R)-4-fluoro-N-((5-fluoro-4-(4-(trifluoromethyl)piperidin-1-yl)pyridin-2-yl)methyl)-1-(4-fluorophenylsulfonyl)pyrrolidine-2-carboxamide], the pIC50 was 7.68.

Tested on in another series: not listed separately
The series is described as follows: in vivo rat pharmacokinetic (PK) studies, plasma clearance. The settings on record: plasma, read-out: Rat PK Clp.
In the case of `O=C(NCc1cc(-c2ccc(C(F)(F)F)nc2)ncn1)[C@@H]1[C@@H](F)CCN1S(=O)(=O)c1ccc(F)cc1` [(2R,3S)-3-fluoro-1-(4-fluorophenyl)sulfonyl-N-[[6-[6-(trifluoromethyl)-3-pyridyl]pyrimidin-4-yl]methyl]pyrrolidine-2-carboxamide], the clearance amounted to 101 mL/min/kg.

Consider `O=C(NCc1cc(-c2ccc(C(F)(F)F)nc2)ncn1)[C@@H]1CCCN1S(=O)(=O)c1ccc(F)cc1` [(2S)-1-(4-fluorophenyl)sulfonyl-N-[[6-[6-(trifluoromethyl)-3-pyridyl]pyrimidin-4-yl]methyl]pyrrolidine-2-carboxamide], for which the clearance was 98 mL/min/kg. The same measure, in the same setting: as for `O=C(NCc1cc(-c2ccc(C(F)(F)F)nc2)ncn1)[C@@H]1CC(F)(F)CN1S(=O)(=O)c1ccc(F)cc1` [(2S)-4,4-difluoro-1-(4-fluorophenyl)sulfonyl-N-[[6-[6-(trifluoromethyl)-3-pyridyl]pyrimidin-4-yl]methyl]pyrrolidine-2-carboxamide], the figure is 30 mL/min/kg; as for `N#C[C@@H]1C[C@@H](C(=O)NCc2cc(-c3ccc(C(F)(F)F)cc3)ncn2)N(S(=O)(=O)c2ccc(F)cc2)C1` [(2S,4R)-4-cyano-1-(4-fluorophenyl)sulfonyl-N-[[6-[4-(trifluoromethyl)phenyl]pyrimidin-4-yl]methyl]pyrrolidine-2-carboxamide], 7.6 mL/min/kg; as for `C[C@@]1(C(=O)NCc2cc(-c3ccc(C(F)(F)F)nc3)ncn2)C[C@@H](F)CN1S(=O)(=O)c1ccc(F)cc1` [(2S,4R)-4-fluoro-1-(4-fluorophenyl)sulfonyl-2-methyl-N-[[6-[6-(trifluoromethyl)-3-pyridyl]pyrimidin-4-yl]methyl]pyrrolidine-2-carboxamide], 15 mL/min/kg. Same read-out and setting: the same measure for `C[C@@]1(F)C[C@@H](C(=O)NCc2cc(-c3ccc(C(F)(F)F)nc3)ncn2)N(S(=O)(=O)c2ccc(F)cc2)C1` [(2S,4R)-4-fluoro-1-(4-fluorophenyl)sulfonyl-4-methyl-N-[[6-[6-(trifluoromethyl)-3-pyridyl]pyrimidin-4-yl]methyl]pyrrolidine-2-carboxamide]: 11.3 mL/min/kg; for `COc1nc(CNC(=O)[C@@H]2C[C@@H](F)CN2S(=O)(=O)c2ccc(F)cc2)cc(-c2ccc(C(F)(F)F)nc2)n1` [(2S,4R)-4-fluoro-1-(4-fluorophenyl)sulfonyl-N-[[2-methoxy-6-[6-(trifluoromethyl)-3-pyridyl]pyrimidin-4-yl]methyl]pyrrolidine-2-carboxamide]: 16.5 mL/min/kg; for `COc1nn(-c2ccc(C(F)(F)F)nc2)cc1CNC(=O)[C@@H]1C[C@@H](F)CN1S(=O)(=O)c1ccc(F)cc1` [(2S,4R)-4-fluoro-1-(4-fluorophenyl)sulfonyl-N-[[3-methoxy-1-[6-(trifluoromethyl)-3-pyridyl]pyrazol-4-yl]methyl]pyrrolidine-2-carboxamide]: 13 mL/min/kg. Still for that read-out and setting: the same measure for `O=C(NCc1cc(-c2cnc(C(F)(F)F)nc2)c(F)cn1)[C@@H]1C[C@@H](F)CN1S(=O)(=O)c1ccc(F)cc1` [(2S,4R)-4-fluoro-1-(4-fluorophenyl)sulfonyl-N-[[5-fluoro-4-[2-(trifluoromethyl)pyrimidin-5-yl]-2-pyridyl]methyl]pyrrolidine-2-carboxamide]: 5.9 mL/min/kg.
